# Measured values published in US8952024B2, “Herbicidal pyrimidone derivatives” (E I du Pont de Nemours and Company, priority 2009, dated 2015).
# How the values were obtained:
# Type in all cases: in vivo
# [1] = tested on: barnyardgrass (Echinochloa crus-galli); experiment: Test A pre-/postemergence plant response; settings: for Barnyardgrass plant response rating: visual injury, 0 to 100 scale (0 no effect, 100 complete control), approx. ten days
# Method in brief: (§1)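 Each species was treated preemergence via directed soil spray and postemergence at the one- to two-leaf stage, with compounds formulated in a non-phytotoxic solvent plus surfactant. Visual injury relative to untreated controls was rated after about ten days on a 0–100 scale.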
# corn (Zea mays) = experiment: Test A pre-/postemergence plant response; settings: for Corn plant response rating: visual injury, 0 to 100 scale (0 no effect, 100 complete control), approx. ten days
# Method in brief: as §1
# [2] = tested on: giant foxtail (Setaria faberii); experiment: Test A pre-/postemergence plant response
# Method in brief: as §1
# [3] = tested on: large crabgrass (Digitaria sanguinalis); experiment: Test A pre-/postemergence plant response; settings: for Crabgrass, Large plant response rating: visual injury, 0 to 100 scale (0 no effect, 100 complete control), approx. ten days
# Method in brief: as §1
# [4] = tested on: morningglory (Ipomoea spp.); experiment: Test A pre-/postemergence plant response
# Method in brief: as §1
# [5] = tested on: pigweed (Amaranthus retroflexus); experiment: Test A pre-/postemergence plant response
# Method in brief: as §1
# [6] = tested on: velvetleaf (Abutilon theophrasti); experiment: Test A pre-/postemergence plant response
# Method in brief: as §1
# [7] = tested on: wheat (Triticum aestivum); experiment: Test A pre-/postemergence plant response
# Method in brief: as §1
# [8] = tested on: barnyardgrass (Echinochloa crus-galli); experiment: Test B flooded paddy test; settings: for Plant response rating, Flood, Barnyardgrass: 250 g ai/ha, flooded paddy test, visual rating on 0 to 100 scale (0 no effect, 100 complete control) after 13 to 15 days; for Plant response rating, Barnyardgrass: Flood (flooded paddy test), 13 to 15 days
# Method in brief: (§2)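 Each compound is added to standing floodwater (3 cm above soil, maintained) in pots of 2-leaf-stage plants; greenhouse exposure lasts 13–15 d before visual comparison with controls on a 0–100 control scale.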
# [9] = tested on: ducksalad (Heteranthera limosa); experiment: Test B flooded paddy test; settings: for Plant response rating, Flood, Ducksalad: 250 g ai/ha, flooded paddy test, visual rating on 0 to 100 scale (0 no effect, 100 complete control) after 13 to 15 days; for Plant response rating, Ducksalad: Flood (flooded paddy test), 13 to 15 days
# Method in brief: as §2
# rice (Oryza sativa) = experiment: Test B flooded paddy test; settings: for Plant response rating, Flood, Rice: 250 g ai/ha, flooded paddy test, visual rating on 0 to 100 scale (0 no effect, 100 complete control) after 13 to 15 days; for Plant response rating, Rice: Flood (flooded paddy test), 13 to 15 days
# Method in brief: as §2
# [10] = tested on: umbrella sedge (Cyperus difformis); experiment: Test B flooded paddy test; settings: for Plant response rating, Flood, Sedge, Umbrella: 250 g ai/ha, flooded paddy test, visual rating on 0 to 100 scale (0 no effect, 100 complete control) after 13 to 15 days; for Plant response rating, Sedge, Umbrella: Flood (flooded paddy test), 13 to 15 days
# Method in brief: as §2
# [11] = Postemergence, 125 g ai/ha, 0 to 100 scale where 0 is no effect and 100 is complete control
# [12] = Preemergence, 125 g ai/ha, 0 to 100 scale, 0 = no effect, 100 = complete control
# [13] = Preemergence, 500 g ai/ha, 0 to 100 scale, 0 = no effect, 100 = complete control
# [14] = Postemergence, 500 g ai/ha, visual injury, 0 to 100 scale (0 no effect, 100 complete control), approx. ten days
# [15] = 62 g ai/ha, scale of 0 to 100 where 0 is no effect and 100 is complete control
# [16] = Preemergence, 125 g ai/ha, 0 to 100 scale where 0 is no effect and 100 is complete control, approximately ten days
# [17] = Postemergence, 125 g ai/ha, visual injury, 0 to 100 scale (0 no effect, 100 complete control), approx. ten days
# [18] = 125 g ai/ha, scale 0 to 100, 0 is no effect, 100 is complete control
# [19] = Flood, 31 g ai/ha, scale 0 to 100 (0 no effect, 100 complete control)
structure (smiles),measurement,setting,value
CCCCn1c(-c2cccc(C)c2)ncc(C(=O)C2=C(O)C3CCC(C3)C2=O)c1=O (stereo not shown) [Compound 232],"Plant response rating, Barnyardgrass",[1]; [11],60
same,Barnyardgrass plant response rating,"[1]; Postemergence, 500 g ai/ha",90
same,"Plant response rating, Barnyardgrass",[1]; [12],0
same,"Plant response rating, Barnyardgrass",[1]; [13],50
same,"Plant response rating, Corn",corn (Zea mays); [11],10
same,Corn plant response rating,"corn (Zea mays); Postemergence, 500 g ai/ha",60
same,"Plant response rating, Corn",corn (Zea mays); [12],0
same,"Plant response rating, Corn",corn (Zea mays); [13],0
same,"Plant response rating, Foxtail, Giant",[2]; [11],60
same,"Foxtail, Giant plant response rating",[2]; [14],90
same,"Plant response rating, Foxtail, Giant",[2]; [12],0
same,"Plant response rating, Foxtail, Giant",[2]; [13],70
same,"Plant response rating, Crabgrass, Large",[3]; [11],20
same,"Crabgrass, Large plant response rating","[3]; Postemergence, 500 g ai/ha",60
same,"Plant response rating, Crabgrass, Large",[3]; [12],10
same,"Plant response rating, Crabgrass, Large",[3]; [13],40
same,"Plant response rating, Morningglory",[4]; [11],100
same,Morningglory plant response rating,[4]; [14],100
same,"Plant response rating, Morningglory",[4]; [12],0
same,"Plant response rating, Morningglory",[4]; [13],40
same,"Plant response rating, Pigweed",[5]; [11],70
same,Pigweed plant response rating,[5]; [14],90
same,"Plant response rating, Pigweed",[5]; [12],0
same,"Plant response rating, Pigweed",[5]; [13],90
same,"Plant response rating, Velvetleaf",[6]; [11],70
same,Velvetleaf plant response rating,[6]; [14],80
same,"Plant response rating, Velvetleaf",[6]; [12],0
same,"Plant response rating, Velvetleaf",[6]; [13],60
same,"Plant response rating, Wheat",[7]; [11],20
same,Wheat plant response rating,[7]; [14],50
same,"Plant response rating, Wheat",[7]; [12],0
same,"Plant response rating, Wheat",[7]; [13],30
same,"Plant response rating, Flood, Barnyardgrass",[8],50
same,"Plant response rating, Barnyardgrass",[8]; [15],30
same,"Plant response rating, Flood, Ducksalad",[9],85
same,"Plant response rating, Ducksalad",[9]; [15],85
same,"Plant response rating, Flood, Rice",rice (Oryza sativa),0
same,"Plant response rating, Rice",rice (Oryza sativa); [15],0
same,"Plant response rating, Flood, Sedge, Umbrella",[10],80
same,"Plant response rating, Sedge, Umbrella",[10]; [15],80
O=C(C1=C(O)C2CCC(C2)C1=O)c1cnc(-c2ccccc2)n(C2CCOCC2)c1=O (stereo not shown) [Compound 249],"Plant response rating, Barnyardgrass",[1]; [11],90
same,Barnyardgrass plant response rating,"[1]; Postemergence, 500 g ai/ha",100
same,"Plant response rating, Barnyardgrass",[1]; [16],0
same,"Plant response rating, Barnyardgrass",[1]; [13],40
same,"Plant response rating, Corn",corn (Zea mays); [11],0
same,Corn plant response rating,"corn (Zea mays); Postemergence, 500 g ai/ha",20
same,"Plant response rating, Corn",corn (Zea mays); [16],0
same,"Plant response rating, Corn",corn (Zea mays); [13],0
same,"Plant response rating, Foxtail, Giant",[2]; [17],80
same,"Foxtail, Giant plant response rating",[2]; [14],90
same,"Plant response rating, Foxtail, Giant",[2]; [16],20
same,"Plant response rating, Foxtail, Giant",[2]; [13],40
same,"Plant response rating, Crabgrass, Large",[3]; [11],90
same,"Crabgrass, Large plant response rating","[3]; Postemergence, 500 g ai/ha",100
same,"Plant response rating, Crabgrass, Large",[3]; [16],40
same,"Plant response rating, Crabgrass, Large",[3]; [13],80
same,"Plant response rating, Morningglory",[4]; [17],100
same,Morningglory plant response rating,[4]; [14],100
same,"Plant response rating, Morningglory",[4]; [16],30
same,"Plant response rating, Morningglory",[4]; [13],70
same,"Plant response rating, Pigweed",[5]; [17],90
same,Pigweed plant response rating,[5]; [14],100
same,"Plant response rating, Pigweed",[5]; [16],80
same,"Plant response rating, Pigweed",[5]; [13],100
same,"Plant response rating, Velvetleaf",[6]; [17],100
same,Velvetleaf plant response rating,[6]; [14],100
same,"Plant response rating, Velvetleaf",[6]; [16],60
same,"Plant response rating, Velvetleaf",[6]; [13],90
same,"Plant response rating, Wheat",[7]; [17],10
same,Wheat plant response rating,[7]; [14],50
same,"Plant response rating, Wheat",[7]; [16],0
same,"Plant response rating, Wheat",[7]; [13],0
same,"Plant response rating, Flood, Barnyardgrass",[8],0
same,"Plant response rating, Barnyardgrass",[8]; [15],0
same,"Plant response rating, Barnyardgrass",[8]; [18],0
same,Barnyardgrass plant response rating,[8]; [19],0
same,"Plant response rating, Flood, Ducksalad",[9],90
same,"Plant response rating, Ducksalad",[9]; [15],65
same,"Plant response rating, Ducksalad",[9]; [18],80
same,Ducksalad plant response rating,[9]; [19],0
same,"Plant response rating, Flood, Rice",rice (Oryza sativa),15
same,"Plant response rating, Rice",rice (Oryza sativa); [15],0
same,"Plant response rating, Rice",rice (Oryza sativa); [18],0
same,Rice plant response rating,rice (Oryza sativa); [19],0
same,"Plant response rating, Flood, Sedge, Umbrella",[10],90
same,"Plant response rating, Sedge, Umbrella",[10]; [15],60
same,"Plant response rating, Sedge, Umbrella",[10]; [18],85
same,"Sedge, Umbrella plant response rating",[10]; [19],0
